SMILES | melting point
COc1cc(-c2nn(C(C)(C)C)c(N)c2C(N)=O)cc(OC)c1OC | 180 to 192 °C
c1cc(-c2cc3nccnc3[nH]2)ccn1 | 324 to 326 °C
Cn1cc(-c2cccc(C(F)(F)F)c2)c(=O)n1-c1cccc(C(F)(F)F)c1 | 110 to 111 °C
Cc1c(N(C)C)ccc(Br)c1N=C1NCCN1 | 157 to 158 °C
N#CC(C#N)=C1N(CCCN2CCCCC2)CCN1C1CCN(CCF)CC1 | 56 to 57 °C
COc1ccccc1-c1cccc(C#N)c1 | 58 °C
CCOC(=O)C(C(=O)OCC)C(NC(C)=O)[PH](=O)O (stereo not drawn) | 113 to 114 °C
COCC(=O)OC(=C1C(=O)N(C(N)=O)c2cc(Cl)c(F)cc21)c1cccs1 | 199 to 200 °C
N=C(Nc1ccc(Cl)cc1)NC1CC2C3CC4C2C4C13 (stereo not drawn) | 170 to 171 °C
CN1C(=O)C(C(=O)Nc2ccccc2)Sc2ccccc21 (stereo not drawn) | 124 to 126 °C
CS(=O)(=O)c1ccc(-c2nn(Cc3ccccc3)c(C(F)(F)F)c2-c2ccc(F)cc2)cc1 | 126 °C
CS(=O)c1cccc2c1C(=O)N1CCCC1c1c(C(=O)OC(C)(C)C)ncn1-2 (stereo not drawn) | 224 to 225 °C
COC(=O)c1c(OC)cc(N(C)C)nc1C | 65 to 66 °C
Cn1c(=O)[nH]c2ccc(-c3cccc([N+](=O)[O-])c3)cc21 | 264 to 265 °C
O=S(=O)(c1cccc(F)c1)N1CCCC1c1ccc(F)cc1 (racemic) | 101 °C
CN(C)C[C@H]1CCSc2ccccc2[C@]1(O)c1cccc(O)c1 (racemic) | 188 to 190 °C
COc1ccc(C(=O)CC(Cc2ccccc2)C(=O)O)cc1 (single isomer, unassigned; (+)) | 93 °C
CCCc1cc(O)nc(SC)n1 | 158 °C
Cc1oc(-c2ccccc2)nc1CCOc1ccc(CC2SC(=O)NC2=O)cc1 (stereo not drawn) | 113 to 114 °C
O=C1NC(=O)C(c2ccc(-c3ccccc3)o2)O1 (stereo not drawn) | 216 to 218 °C
COc1ccc(-n2c(N)nc3ccccc32)cc1-c1ccco1 | 218 to 221 °C
Oc1ccc2c(c1O)OCC(c1cccc(Cl)c1)C2 (stereo not drawn) | 99 to 101 °C
Cc1ccc(C)c2c1OC(=O)C2c1ccc(C(C)C)cc1 (stereo not drawn) | 107 to 109 °C
O=C1NCc2c(-c3ccccc3)cccc2N1c1ccccc1 | 234 to 235 °C
CCCOc1ccn2nc(-c3ccccc3)c(-c3ccc(=O)n(C(C)C)n3)c2c1 | 162 °C
CC(C)OC(=O)NC12CC1CN(Cc1ccccc1)C2 (stereo not drawn) | 88 °C

SMILES | melting point
Cc1cc(O)c(S(=O)(=O)Cc2ccc(Cl)c(Cl)c2)c(=O)o1 | 144 to 145 °C
O=c1[nH]c2ccccc2n1-c1ncnc2nn(C3CCCC3)cc12 | 236 to 240 °C
CC(C#N)c1ccc(Cc2ccccc2CC#N)cc1 (stereo not drawn) | 61 to 64 °C
NC(=O)CCC1OC(=O)NC1c1cc(F)c(-n2nnc(Cc3cccs3)n2)c(F)c1 (stereo not drawn) | 142 to 144 °C
COc1ccc(-c2nc(Cl)cc(N3CCN(C)CC3)n2)cc1 | 88 to 90 °C
CC(C)c1cccc(C(C)C)c1N1C(=O)c2cccc3c(Cl)ccc(c23)C1=O | 289 °C
CS(=O)(=O)c1ccc(C2=C(c3ccc(F)cc3)CC(CF)(CF)C2)cc1 | 134 to 135 °C
O=C1NCC(Cc2ccccc2)C2=C1N=C1N=C(N3CCOCC3)NN1C2 (stereo not drawn) | 315 to 317 °C
CC(C)CCCOc1c(-c2ccc(S(C)(=O)=O)cc2)cnn(-c2ccc(F)cc2)c1=O | 123 to 125 °C
C#CC1CCC(c2ccc(C3CCC(CCC)CC3)cc2)CC1 (stereo not drawn) | 143 °C
O=C(O)c1ccc(/C=C/c2ccc(O)c(C34CC5CC(CC(C5)C3)C4)c2)cc1 | 279 to 280 °C
CC(=O)c1ccc(NCc2cc3c(cc2O)CCO3)cc1 | 181 to 183 °C
Cc1[nH]cnc1Cc1cn(C)c2ccccc2c1=O | 110 to 113 °C
CCOCn1c(C(F)(F)F)nc2cc(Cl)c(Cl)cc21 | 89 to 92 °C
CS(=O)(=O)c1ccc(-c2cnn(-c3ccc(Oc4ccccc4)cc3)c(=O)c2-c2ccc(F)cc2)cc1 | 118 to 125 °C
CCCCCCc1ccc(-c2c(C#N)nn(C(C)(C)Cc3ccc(C)cc3)c2O)cc1 | 140 to 142 °C
CC(C)(C)c1cc(C(C)(C)C)c(=O)c2nc3ccccc3sc1-2 | 137 to 141 °C
COc1cc(C=Cc2ccccc2)c(C#N)c(OC)c1 | 147 to 148 °C
O=C1c2cc(Cl)ccc2OCC1n1ccnc1 (stereo not drawn) | 123 to 125 °C
CC1(C)Oc2ccc(C#N)cc2[C@@H](NC(=O)Nc2cccc(-c3cnc[nH]3)c2)[C@@H]1O | 170 to 180 °C
C#CCOc1ccc(C=NOC)cc1OC | 68 to 69 °C
O=C(O)COCCN1CCN(C(c2ccccc2)c2ccccc2)CC1 | 100 °C
CC(NC(=O)NCCCCC1CCSS1)C(=O)O (stereo not drawn) | 131 to 134 °C
CS(=O)(=O)c1ccc(-c2cnn(-c3cccc(Cl)c3)c(=O)c2Sc2ccccn2)cc1 | 110 to 114 °C
COc1cccc(CC(=O)O)c1OCCn1cc(C(=O)NCc2ccc(Cl)cc2Cl)c(OC(C)C)n1 | 154 to 155 °C
COc1ccc(CNC2SC(=O)NC2=O)cc1 (stereo not drawn) | 140 to 142 °C

SMILES | melting point
CC(=O)OC1CSC(Oc2cccc(C)n2)C(OC(C)=O)C1OC(C)=O (stereo not drawn) | 106 °C
COc1ccc(-c2cncc(OC3SCC(O)C(O)C3O)c2)c(Cl)c1 (stereo not drawn) | 218 °C
COC(=O)c1c[nH]c(Sc2cc(Cl)c(Cl)cc2Cl)c1 | 165 to 175 °C
O=C1c2ccccc2C(=O)N1CCCn1c2ccccc2c2nc3ccccc3nc21 | 212 to 214 °C
O=C(c1ccccc1)c1ccc(Cl)c(N=C=S)c1 | 96.7 °C
COC(=O)Cc1cn(-c2ccccc2)nc1O | 144 to 145 °C
COC(=O)Cc1ccccc1S(=O)(=O)NC(=O)Nc1nc(Cl)cc(Cl)n1 | 115 to 118 °C
CC(C)Cc1ccc(CCOC(=O)c2cc(O)c3c(c2)C(=O)c2cccc(O)c2C3=O)cc1 | 117 to 121 °C
CCOC(COc1ccc2c(-c3ccccc3F)noc2c1Cl)OCC | 59 °C
O=C(Nc1ccccc1)OCC1CSC2=C(O1)c1ccccc1C(=O)C2=O (stereo not drawn) | 250 to 252 °C
N#CN=C(Nc1cnc(Cl)c(N)c1)Oc1ccccc1 | 219 to 220 °C
Cc1cc(CC(=O)O)ccc1[N+](=O)[O-] | 95 °C
O=C(O)CCc1ccc(Oc2ccc3c(c2)S(=O)(=O)N=C2CCCN23)cc1 | 216 to 222 °C
O=C(c1ccc(F)cc1)C1CCN(CCO)CC1 | 45 to 47 °C
COC(=O)c1cccc2oc(SCCCN3CCN(CC(=O)Nc4c(C(C)C)cccc4C(C)C)CC3)nc12 | 132 to 133 °C
COC(=O)NCC1CN(c2ccc(-n3cnc(Cn4cccn4)c3)c(F)c2)C(=O)O1 (stereo not drawn) | 130 °C
O=C(O)c1cn(C2CC2)c2cc(N3CCNC(c4ccoc4)C3)c(F)cc2c1=O (stereo not drawn) | 202 to 204 °C
O=c1c2c(OCC3CO3)cc(OCC3CO3)cc2oc2ccc3ccccc3c12 (stereo not drawn) | 198 to 200 °C
O=C(O)CC(CO)C(=O)c1ccc(Cl)c([N+](=O)[O-])c1 (stereo not drawn) | 210 to 213 °C
CC(c1cc(F)ccc1O)c1cc(Cl)cc(Cl)c1O (stereo not drawn) | 150 °C
Nc1nccc(-c2c[nH]c3nccc(C#Cc4ccccc4)c23)n1 | > 210 °C
CCOC(=O)C(C)Oc1ccc(Nc2ccc(C(F)(F)F)cc2[N+](=O)[O-])cc1 (stereo not drawn) | 61 to 63 °C
OCCN1CCN(c2cc(Cl)nc(-c3ccccc3)n2)CC1 | 103 to 105 °C
NC(=O)[C@H]1CCc2[nH]c3ccc(F)cc3c2C1 | 170 to 172 °C
CCOC(=O)C(Cc1ccc(C(F)(F)F)cc1)C(=O)c1ccc(F)cc1 (stereo not drawn) | 56 to 57 °C
CCCn1c(=O)nc(NNC(C)=O)c2[nH]c(C3CCCC3)nc21 | > 270 °C

SMILES | melting point
CSc1nc(O)cc(OC(F)F)n1 | 236 to 237 °C
CC(=O)C(Cc1c(CCN(C)C)[nH]c2ccccc12)(c1ccccc1)c1ccccc1 | 135 to 137 °C
CC(C)c1ccccc1N1/C(=N\N=C/c2ccc(-c3ncn(-c4ccc(OC(F)(F)F)cc4)n3)cc2)SCC1(O)C(F)(F)F (stereo not drawn) | 185 to 187 °C
CCOCc1cc2ccc(OCc3ccccc3)cc2o/c1=N\c1ccccc1 | 94 to 95 °C
CSCc1cn(C)c2ccccc2c1=O | 118 to 120 °C
CC1(C)CCCC(=Cc2ccc(Cl)cc2)C1=O | 92 °C
CC(=O)N[C@H](COC1CCCCO1)C(=O)NCCO[N+](=O)[O-] (stereo partly drawn) | 93 to 95 °C
CC(C)N(CCO)c1nc(Nc2cccc(NS(C)(=O)=O)c2)nc2[nH]ccc12 | 129 to 132 °C
Cc1ccc(S(=O)(=O)N(CCCl)N(S(C)(=O)=O)S(C)(=O)=O)cc1 | 99 to 101 °C
COC(=O)C1(CCCN2CCN(c3ccccc3)CC2)Sc2cc(OC)ccc2OCC1=O (stereo not drawn) | 110 to 112 °C
Cc1cc(N2N=CCNC2=O)cc(Cl)c1Sc1nccn1C | 173 to 174 °C
CCOc1nc2cc(Cl)c(Cl)cc2nc1N | 191 to 193 °C
CC(C)C[C@H](OC(=O)N1CCCCCC1)C(=O)O | 86 to 88 °C
CN(C)CC1CCc2cc(OCc3ccc(NC(=O)Cc4ccccc4)cc3)ccc2C1 (stereo not drawn) | 130 to 135 °C
Cc1ccc(N=CN(C)SN(C)c2ccccc2)c(C)c1 | 72 to 73.5 °C
CCOC(=O)c1cnc2nn(C)cc2c1O | 222 to 224 °C
CC(=O)NCCSc1c(Cl)cc([N+](=O)[O-])c(C)c1[N+](=O)[O-] | 152 °C
COc1cc(OC)c(-c2ccc(C(=O)O)s2)cc1/C=C/C(=O)c1ccc(C(=O)O)cc1 | > 260 °C
Cc1nc(N2CCNCC2)nc(N2CCSCC2)c1C#N | 146 to 148 °C
O=C(O)c1cc(Cl)c(Cl)c(Cl)n1 | 115 to 120 °C
Cc1nnc(SCC(=O)C23CC4CC(CC(C4)C2)C3)s1 | 102 to 105 °C
O=C(Nc1ccc(-c2nc(-c3ccco3)no2)c(Cl)c1)Oc1ccccc1 | 184 to 186 °C
O=C(Cn1ncc2cc(/C=C/C(c3cc(Cl)c(F)c(Cl)c3)C(F)(F)F)ccc2c1=O)NCC(F)(F)F (stereo not drawn) | 172 to 175 °C
CCc1c(C(=O)NN2CCCCC2)nn(-c2ccc(Cl)cc2Cl)c1-c1ccc(Br)cc1 | 112 to 115 °C
CCCCc1oc2ccccc2c1C(=O)NCc1ccc2c(-c3ccc(C)cc3)c(OCC#N)ccc2c1 | 114 to 117 °C

From a melting point compilation (Tetko et al.; mined from patent text by program, amines drawn as free bases though some values may be those of a salt)
